US4377687A, “Analogs of 1-(2-chloroethyl)-1-nitroso-3-(cycloheyl)-urea substituted by heterocyclic rings or alkyl radicals” (Stiftung Deutsches Krebsforschungszentrum, priority 1978, dated 1983)
Read-outs that look alike come from different tables or passages of the source.

Legend:
Yoshida sarcoma [1] = type: in vivo, rat (male Sprague-Dawley rats); conditions: for tumor-free animals at the end of the experiment (in words) / increase in tumor-free animals (cures) above controls: 120 days; for increase in tumor-free animals (cures) above controls: BCNU, MeCCNU 45, dimethylmorpholine-CNU 45, piperidino-CNU 15, picolyl-3-CNU.HCl 25 mg/kg; for effect on survival time / life expectancy (in words): experiments 1-4, MeCCNU 45, morpholino-CNU 28 (exp. 3 and 5), dimethylmorpholine-CNU 45, piperidino-CNU 15, picolyl-3-CNU 25, picolyl-3-CNU.HCl 25 mg/kg; for chemotherapeutic activity against Yoshida sarcoma in the colon wall (in words): i.p.
Method: The chemotherapeutic activity of nitrosoureas was compared in antitumor tests using Yoshida sarcoma ascited cells implanted into the wall of the descending colon in Sprague-Dawley rats.
(§1) Male Sprague-Dawley rats were used in the experiments. Yoshida sarcome in ascites form was maintained in the same strain of rats by serial intraperitoneal injection of 0,5 ml of ascites fluid.
(§2) 3×10^6 cells were injected into the colon wall in a manner known per se. The chemotherapeutic treatment was carried out on the eighth day after implantation of the tumor cells.
(§3) Water-insoluble compounds were dissolved in Cremophor EL/ethanol/physiological saline (20:20:60: vol.%). Water-soluble substances were dissolved in physiological saline. Cremophor EL is a surfactant on the basis of polyethoxylated castor oil. All test compounds were administered introperitoneally. The nitrosoureas were applied at approximately equitoxic doses corresponding to about 80% of the acute LD50 values observed in healthy rats of the same strain over a 28-day observation period.
(§4) Each experiment involved an untreated control group and a varying number of treated groups. Individual survival times were counted as days after tumor inoculation. At the time of death a record of whether an animal was tumor-free or not was made. All animals alive 120 days after tumor inoculation were killed. Animals that according to macroscopic examination had no tumor at the end of the experiment were considered as cured. Since in a number of control rats also no tumors occurred after 120 days the differences in cures between controls and treated animals rather than absolute numbers are reported. Differences in survival were evaluated statistically by individual comparisons between treated rats and controls using a nonparametric log-rank test (Kalbfleisch and Prentice, The statistical analysis of failure time data, Wiley, New York, 1979). Numerical evaluation was performed using a computerized system.

Yoshida sarcoma [2] = type: in vivo, rat (male Sprague-Dawley rats); conditions: i.p.
[3] = Mean animal weight / weight gain after tumor transplantation; type: in vivo, rat (Sprague-Dawley rats); conditions: CP 70 (exp. 1-3), BCNU 25, MeCCNU 45 (exp. 1), picolyl-3-CNU 25, its HCl 25 (exp. 2), morpholino-CNU 28, piperidino-CNU 15 (exp. 3), dimethylmorpholino-CNU 45 mg/kg (exp. 4); for Mean animal weight on day 50: day 50 after tumor transplantation; for Mean animal weight on day 100: day 100 after tumor transplantation
Method: as §1, §2, §3
In all treated animals and at all doses tested the mean weight gain was lower than in the controls. Table 3 gives the mean animal weights measured 50 and 100 days after tumor transplantation in experiments 1 to 5.

[4] = Toxicity in treated tumor-bearing rats (Yoshida sarcoma experiments); type: in vivo, rat (Sprague-Dawley rats)
Method: as §1, §2, §3, §4

Yoshida sarcoma [5] = conditions: previous experiments; i.p.; cited from earlier work
rat leukemia L 5222 = experiment: Chemotherapeutic activity against rat Leukemia L5222; type: in vivo, rat (BD IX rats); conditions: rat, in vivo
Method: Chemotherapeutic activity of methylformylamino-CNU against rat Leukemia L5222 (CNU=chloroethyl-nitroso-urea)
The compound to be tested was solved in Chremophor EL/ethanol/physiological saline and a single dose was administered intraperitoneally into tumor inoculated BD IX rats. The experiment involved an untreated control group and a number of treated groups. The doses used and the effects of the praeterminal treatment are summarized in the following Table from which the cures (animals free of tumor after 120 days) and the increase in life span (ILS, expressed as percentage of survival of the treated test group to the untreated control group) are evident.
Considering the fact that the true measure of the effectiveness of a drug against a neoplastic desease is the ability of the drug to kill the neoplastic cells at dosages that are not toxic to the host animal and that a quantitative evaluation of drug action is usually obtained by using the L1210 leucemia system in mice, it will be realized that in this test the tumor cells are injected into the peritoneal cavity of a mouse which thereafter is treated with the drug to be tested at a very early time after the inoculation of the tumor, i.e. at the first or second day after tumor inoculation. Thus such screening is done under very favourable test conditions for the drug. Contrary thereto the administration of the drug to be tested is performed relatively late in the case of the rat leucemia L5222, i.e. at the 8th day after tumor inoculation. It must, therefore, be taken that at that time tumor cells have colonized the cerebral region, i.e. the meninges, so that cures can only be obtained if the drug has an activity high enough to kill the leucemia cells in the cerebral region in a praeterminal state. Thus by far more severe test conditions are involved when treating rat leucemia L5222 or type Yoshida sarcoma which is a tumor model and which are hard to influence by known drugs.

[6] = Experiment 4, 45 mg/kg, 30 initial animals
[7] = Experiment 1, CP 70, BCNU 25, MeCCNU 45 mg/kg
[8] = Experiment 1, CP 70, BCNU 25, MeCCNU 45 mg/kg, initial animals CP 30, BCNU 30, MeCCNU 29
[9] = Experiment 1, i.p. day 8, CP 70, BCNU 25, MeCCNU 45 mg/kg
[10] = Experiment 3, CP 70, morpholino-CNU 28, piperidino-CNU 15 mg/kg
[11] = Experiment 3, CP 70, morpholino-CNU 28, piperidino-CNU 15 mg/kg, 30 initial animals each
[12] = Experiment 5, CP 70, picolyl-3-CNU.HCl 25, morpholino-CNU 28, piperidino-CNU 15 mg/kg
[13] = Experiment 5, CP 70, picolyl-3-CNU.HCl 25, morpholino-CNU 28, piperidino-CNU 15 mg/kg, 15 initial animals (picolyl-3-CNU.HCl 14)

CC1CN(NC(=O)N(CCCl)N=O)CC(C)O1 (stereo not shown) [Dimethylmorpholino-CNU]
tumor-free animals at the end of the experiment (in words) (Yoshida sarcoma [1]): remarkable increase in tumor-free animals | increase in tumor-free animals (cures) above controls (Yoshida sarcoma [1]; CP (exp. 1-3)): 20% | % M (median survival time, untreated control = 100) (Yoshida sarcoma [1]; Experiment 4, 45 mg/kg): 374% | D1-120 = difference (%) between tf1-120 of treated and untreated animals (Yoshida sarcoma [1]; Experiment 4, 45 mg/kg): 27% | D120 = difference (%) between tf120 of treated and untreated animals (Yoshida sarcoma [1]; Experiment 4, 45 mg/kg): 20% | tf1-120 (%) (tf120 + animals dying of toxicity) (Yoshida sarcoma [1]; Experiment 4, 45 mg/kg): 47% | tf120 (%) (animals surviving day 120 without tumor) (Yoshida sarcoma [1]; Experiment 4, 45 mg/kg): 40% | tf1-120, No. (tf120 + animals dying of toxicity) (Yoshida sarcoma [1]; [6]): 14 | tf120, No. (animals surviving day 120 without tumor) (Yoshida sarcoma [1]; [6]): 12 | M = median survival time (Yoshida sarcoma [1]; Experiment 4, i.p. day 8, 45 mg/kg): 71 days | p for improvement of survival time / life expectancy (Yoshida sarcoma [1]; compared with controls, CP (exp. 1-3), dimethylmorpholine-CNU 45 mg/kg): < 0,05 | effect on survival time / life expectancy (in words) (Yoshida sarcoma [1]; listed as Dimethylmorpholine-CNU): significantly improved the life expectancy | effect on survival time / life expectancy (in words) (Yoshida sarcoma [1]; listed as dimethylmorpholino-CNU): significant increase in survival time | chemotherapeutic activity against Yoshida sarcoma in the colon wall (in words) (Yoshida sarcoma [1]): active | water solubility (in words) (Water solubility): water-soluble | concentration reached in the distal colon (in words) (Yoshida sarcoma [2]): reached the distal colon at chemotherapeutically effective concentrations | Mean animal weight on day 50 [3]: 250 g | Mean animal weight on day 100 [3]: 250 g

CC1CCC(NC(=O)N(CCCl)N=O)CC1 (stereo not shown) [MeCCNU, 1-(2-chloroethyl)-3-(4-methylcyclohexyl)-1-nitrosourea]
toxicity (in words) ([4]; at the doses tested): obviously toxic | mortality at 2880 h ([4]; rat, in vivo, ip, 45 mg/kg, read-out: animals died without a tumor before day 120): 19% | tumor-free animals at the end of the experiment (in words) (Yoshida sarcoma [1]): increased the rate of tumor-free animals alive at the end of the experiment | increase in tumor-free animals (cures) above controls (Yoshida sarcoma [1]; CP (exp. 1-3)): 8% | D1-120 = difference (%) between tf1-120 of treated and untreated animals (Yoshida sarcoma [1]; [7]): 27% | D120 = difference (%) between tf120 of treated and untreated animals (Yoshida sarcoma [1]; [7]): 8% | tf1-120 (%) (tf120 + animals dying of toxicity) (Yoshida sarcoma [1]; [7]): 52% | tf120 (%) (animals surviving day 120 without tumor) (Yoshida sarcoma [1]; [7]): 33% | tf1-120, No. (tf120 + animals dying of toxicity) (Yoshida sarcoma [1]; [8]): 15 | tf120, No. (animals surviving day 120 without tumor) (Yoshida sarcoma [1]; [8]): 10 | % M (median survival time, untreated control = 100) (Yoshida sarcoma [1]; [9]): 130% | M = median survival time (Yoshida sarcoma [1]; [9]): 60 days | activity against Yoshida sarcoma, shown previously (in words) (Yoshida sarcoma [5]): active | Mean animal weight on day 50 [3]: 280 g | Mean animal weight on day 100 [3]: 300 g

O=NN(CCCl)C(=O)NN1CCOCC1 [Morpholino-CNU, 1-(2-chloroethyl)-1-nitroso-3-(4-morpholino)-urea]
tumor-free animals at the end of the experiment (in words) (Yoshida sarcoma [1]): large number of tumor-free animals | tumor-free animals at the end of the experiment (in words) (Yoshida sarcoma [1]; listed as morpholino-CNU): remarkable increase in tumor-free animals | % M (median survival time, untreated control = 100) (Yoshida sarcoma [1]; [10]): > 686% | D1-120 = difference (%) between tf1-120 of treated and untreated animals (Yoshida sarcoma [1]; [10]): 41% | D120 = difference (%) between tf120 of treated and untreated animals (Yoshida sarcoma [1]; [10]): 34% | tf1-120 (%) (tf120 + animals dying of toxicity) (Yoshida sarcoma [1]; [10]): 70% | tf120 (%) (animals surviving day 120 without tumor) (Yoshida sarcoma [1]; [10]): 63% | tf1-120, No. (tf120 + animals dying of toxicity) (Yoshida sarcoma [1]; [11]): 21 | tf120, No. (animals surviving day 120 without tumor) (Yoshida sarcoma [1]; [11]): 19 | M = median survival time (Yoshida sarcoma [1]; Experiment 3, i.p. day 8, CP 70, morpholino-CNU 28, piperidino-CNU 15 mg/kg): > 120 days | effect on the survival time on retest (in words) (Yoshida sarcoma [1]; Experiment 5, cyclophosphamide as a standard): significant increasing effect on the survival time | % M (median survival time, untreated control = 100) (Yoshida sarcoma [1]; [12]): 180% | D1-120 = difference (%) between tf1-120 of treated and untreated animals (Yoshida sarcoma [1]; [12]): 0% | D120 = difference (%) between tf120 of treated and untreated animals (Yoshida sarcoma [1]; [12]): 0% | tf1-120, No. (tf120 + animals dying of toxicity) (Yoshida sarcoma [1]; [13]): 0 | tf120, No. (animals surviving day 120 without tumor) (Yoshida sarcoma [1]; [13]): 0 | M = median survival time (Yoshida sarcoma [1]; Experiment 5, i.p. day 8, CP 70, picolyl-3-CNU.HCl 25, morpholino-CNU 28, piperidino-CNU 15 mg/kg): 18 days | therapeutic results compared with methyl-CCNU / clinically established nitrosoureas (in words) (Yoshida sarcoma [1]; Yoshida sarcoma of the rat implanted in the colon): better therapeutic results than e.g. the compound methyl-CCNU | effect on survival time / life expectancy (in words) (Yoshida sarcoma [1]): improved the survival times significantly | effect on survival time / life expectancy (in words) (Yoshida sarcoma [1]; listed as morpholino-CNU): significant increase in survival time | chemotherapeutic activity against Yoshida sarcoma in the colon wall (in words) (Yoshida sarcoma [1]): clear chemotherapeutic activity | chemotherapeutic activity against Yoshida sarcoma in the colon wall (in words) (Yoshida sarcoma [1]; listed as morpholino-CNU): active | water solubility (in words) (Water solubility): water-soluble | water solubility (in words) (Water solubility; listed as Example 2): highly water-soluble | concentration reached in the distal colon (in words) (Yoshida sarcoma [2]): reached the distal colon at chemotherapeutically effective concentrations | effectiveness in rat leukemia L 5222 (in words) (rat leukemia L 5222): very good effectiveness | Mean animal weight on day 50 [3]: 270 g | Mean animal weight on day 100 [3]: 270 g
